Test results: US20250120971A1, “NOVEL DRUG TREATMENT OF COGNITIVE IMPAIRMENTS ASSOCIATED WITH SCHIZOPHRENIA” (FLORIDA ATLANTIC UNIVERSITY BOARD OF TRUSTEES, priority 2021, published 2025)
“Also recorded” adds a separate entry of the source.

Assays:
[1] = tested on: KET mouse model of psychosis or schizophrenia-like behavior; assay: Object recognition memory task after systemic (IP) SK channel activator; assay type: in vivo, mouse (male C57BL/6J); details: for discrimination ratio score, test session (Mdn): CyPPA 15.0 mg/kg IP 30 min pre-sample
Protocol: SK Drug Administration. To test the effect of the SK2 specific activator, CyPPA on long-term memory for objects, two KET groups and two SAL groups of male C57BL/6J mice were randomly assigned to receive either VEH or CyPPA (15.0 mg/kg) IP 30 min prior to the sample session of an object recognition memory task. Separate groups received CyPPA (7.5 mg/kg) IP or VEH 30 min prior to the sample session.
Arena Habituation. Mice were habituated to the arena prior to testing recognition memory. Thirty minutes prior to each arena habituation (AH) session, each mouse was restrained gently and momentarily, given a mock IP injection with a 26-gauge needle, and then placed into an empty polycarbonate cage. […] Afterwards, each mouse was returned to the polycarbonate cage and then returned to its home cage. Activity was recorded and automatically scored using Noldus Ethovision XT (version 7.0). Distance traveled was defined as the sum of recorded movement of the center point of the mouse in cm over the duration of the trial. Movement data from the AH sessions was used to match future treatment groups.
Sample Session. To examine the efficacy of activating SK channels on hippocampal long-term memory in the KET model of schizophrenia or psychosis-like cognitive deficits, an SK channel activator or vehicle (VEH, i.e., placebo) was administered to cohorts of saline (SAL) control mice or ketamine (KET)-exposed mice prior to the sample session of an object recognition task. Ten days after the final SAL or KET injection, mice received an IP injection of a SK channel activator or VEH, and then were placed individually in polycarbonate holding cages. Following a delay, the mouse was placed individually into the familiar arena for 10 min. Mice were permitted to freely explore two identical novel objects that were placed in opposite corners within the arena. […] The arena and objects were wiped down with 70% ethanol before each session to eliminate any odor cues that were present. Object exploration was defined as time (in s) that the mouse spent with its head oriented toward and within 2-3 cm of the object. The sample session ended after 10 min; at which time the mouse was returned to its home cage. Sample session behavior was video tracked via Ethovision XT and recordings were analyzed off-line to determine object exploration times for each mouse.
Test Session. Twenty-four hours following the sample session, mice were placed in a polycarbonate cage and then given a 10-min test session in the same arena as the sample session. Each mouse received a needle prick to simulate an IP injection before being placed in the polycarbonate holding cage for 30 min. For the test session, one of the previously encountered objects was replaced with a novel one (e.g., A, B, or C), as described above. To avoid place preference confounding behavioral responses, the objects were randomly replaced for the test session. The arena and objects were wiped down with 70% ethanol before each session to eliminate any odor cues that might affect behavioral responses during the test session.
Statistical Analysis. Object exploration was determined for each mouse based on the manual scoring of behavior from the recorded video files of the sample and test sessions. Scoring was done by experimenters who were blind to the treatment and group of the mice. Object memory was inferred from discrimination ratio scores, calculated for each mouse as the difference in time spent exploring the novel object minus the time spent exploring the familiar object, divided by the total time spent exploring both test objects (TNovel object−TFamiliar object/TNovel object+TFamiliar object). Discrimination ratio scores range from 1 to −1, with ratios greater than zero indicating preferential exploration of the novel object, and ratios less than zero indicating preferential exploration of the familiar object.

[2] = tested on: KET mouse model of psychosis; assay: Object recognition memory task after intrahippocampal (CA1) microinfusion; assay type: in vivo; details: KET mice; CyPPA 1 μg/μl bilateral intra-CA1 pre-sample; test 24 h later
[3] = tested on: KET mouse model of psychosis; assay: Trace fear conditioning and tone test; assay type: in vivo; details: for discrimination ratio of % freezing (trace vs CS intervals) (Mdn): CyPPA 15.0 mg/kg IP 30 min before trace fear conditioning
Protocol: Systemic Administration of the SK2 Activator. Two groups of KET mice and two groups of SAL mice were randomly assigned to receive either VEH or CyPPA (15.0 mg/kg) IP 30 min prior to a trace fear conditioning session.
Trace fear conditioning was performed using a MED Associates Near-Infrared Video Fear Conditioning System (Georgia, VT) composed of four identical rectangular conditioning chambers (30.5 cm by 24.1 cm by 21 cm) constructed of brushed aluminum side walls and clear Plexiglas front, back and top walls. Each chamber was illuminated by an overhead white house light and an infrared light. An audio speaker attached to the right-side wall of each chamber delivered the tone stimuli. The chamber floor was constructed of parallel stainless-steel rods (36 rods, 3.2 mm dia, 7.9 mm apart) designed for mice, and connected to a scrambled shock generator. Each conditioning chamber was housed inside a larger sound-attenuating cabinet with a ventilation fan in the right-side wall used to provide background noise. A near-infrared FireWire video camera, mounted on the left front door of each noise-attenuating cabinet, was used to acquire mouse behavior. Before each trial, the chamber floors were cleaned thoroughly with a 70% ethanol solution, then with 1% LiquiNox (White Plains, New York) to reduce olfactory cues.
Freezing responses were recorded and automatically scored during the conditioning session to assess the strength of fear memory. The automatic software program operationally defined freezing as the duration of time, greater than 0.6 s, during which fewer than 20 pixels of each video frame were detected to have changed. […] All final freezing responses were hand scored to ensure accuracy.
Trace Fear Conditioning Session. Mice received a systemic injection of CyPPA or VEH and then were placed individually into empty holding cages. Thirty min later, mice were placed individually into a distinct conditioning chamber with an odor cue. […] (FIG. 4A). Mice were removed from the chamber 60 s. after the presentation of the 8th US.
Trace Fear Memory Tone Test. To assess retention of trace fear memory after a 24-hour delay, mice received a mock IP injection before being placed in the polycarbonate cage. After 30 min, mice were placed into modified conditioning chambers and after a 60 s. delay, were presented with the identical tone CS as in the conditioning session. […] Mice were removed 30 s. after termination of the last CS. The context of chamber was modified before the tone test by installing an inverted V-shaped Plexiglas insert to change the geometry of the side walls and ceiling, a floor shield, 1% acetic acid, and lighting filter.
Statistical Analysis. […] To examine whether KET differentially influenced the perception of the aversive foot shock stimulus, an activity burst ratio was computed for each mouse by dividing the motion score for the first shock interval, 1 s, +1 s. post shock by the motion score for a 2-s interval from the initial 60 s. of the conditioning session (Mean shock/mean no shock). A two-factor (group, treatment) ANOVA, or one-way if not normally distributed, was conducted to analyze treatment differences in the mean activity burst.
Trace fear conditioning involves the imposition of a temporal gap between the termination of the CS and the onset of the aversive US stimulus. […] The strength and accuracy of this temporally guided fear memory can then be assessed during a test session, often presented 24 hours after trace conditioning. […]

[4] = tested on: rat model of repeated stress; details: cited from earlier work

| SMILES | discrimination ratio, test session (Mdn) ([1]; KET mice, CyPPA 7.5 mg/kg IP 30 min pre-sample, test 24 h later) | object recognition memory vs KET mice given VEH ([1]; KET mice, CyPPA 7.5 mg/kg IP pre-sample, test 24 h later) | discrimination ratio score, test session (Mdn) ([1]; KET mice, test 24 h later) | object recognition memory vs KET mice given VEH ([1]; KET mice, CyPPA 15.0 mg/kg IP pre-sample, test 24 h later) | discrimination ratio score, test session (Mdn) ([1]; SAL control mice, test 24 h later) | object memory vs SAL mice given VEH ([1]; SAL control mice, CyPPA 15.0 mg/kg IP pre-sample) | discrimination ratio score, test session (M) [2] | discrimination ratio, test session (Mdn) [2] | object recognition memory vs KET/VEH [2] | performance during the tone test (retrieval) as stated in the Conclusions ([3]; KET mice given CyPPA vs KET mice given VEH) | discrimination ratio of % freezing (trace vs CS intervals) (Mdn) ([3]; KET mice) | temporal memory / attention in trace fear conditioning vs KET mice given VEH ([3]; KET mice, CyPPA 15.0 mg/kg IP 30 min pre-conditioning) | discrimination ratio of % freezing (trace vs CS intervals) (Mdn) ([3]; SAL mice) | conditioned freezing response vs SAL mice given VEH ([3]; SAL mice, CyPPA 15.0 mg/kg IP pre-conditioning) | fear memory impairments [4] |
| --- | --- | --- | --- | --- | --- | --- | --- | --- | --- | --- | --- | --- | --- | --- | --- |
| Cc1cc(NC2CCCCC2)nc(-n2nc(C)cc2C)n1 [CyPPA] | 0.079 | no rescue of KET-induced impaired object memory | 0.191 | rescued object recognition memory; also recorded: performed significantly better than VEH-treated KET mice; also recorded: significantly better object recognition memory performance | 0.381 | impaired object memory; also recorded: impaired the encoding and or consolidation of object memory | 0.354 | 0.398 | improved object recognition memory; also recorded: partial, albeit significant, rescue of object recognition memory | performed equivalently to KET mice given VEH | 0.21 | rescue of the attention or learning deficit; also recorded: significantly better than that of VEH-treated KET mice; also recorded: rescued temporal memory and attention | 0.13 | impaired acquisition of the conditioned freezing response; also recorded: exhibited impaired freezing compared to SAL mice given VEH | alleviated fear memory impairments |
| CCn1c(=O)[nH]c2ccccc21 [1-EBIO] | – | – | – | – | – | – | – | – | – | – | – | – | – | – | alleviated fear memory impairments |
